Key:
[1] = cited from earlier work
copper absorption = conditions: cited from earlier work
[2] = human, in vivo; cited from earlier work
[3] = test system: rabbit VX2 carcinoma and rat 9L gliosarcoma; conditions: implanted intracerebral tumors; cited from earlier work
copper [4] = conditions: at a cupruresis of 2-3 mg
copper [5] = conditions: cited from earlier work
[6] = therapeutic dose 1,000-2,000 mg/day

For `[Mo]` [Mo, molybdenum], the efficacy ([1]; 5-20 mg/kg/day of Mo for 4-11 months) is given as “not effective” and the toxicity ([1]; 350 to 1400 mg/day (5-20 mg/kg/day) of Mo for 4-11 months) is given as “without known toxicity”.

In the case of `[Zn]` [zinc], the toxicity (copper absorption; 150 mg daily, 200 Wilson's disease patients) is given as “no toxicity at all”, the “copper balance, average” value (copper absorption; at the two week point) is given as −0.35 mg daily and the “time to bring urine copper and nonceruloplasmin plasma copper down to subtoxic levels” value (copper absorption; human, in vivo) is given as “as long as six months”. For the same molecule, the “time to intestinal metallothionein induction and a negative copper balance” value (copper absorption; human, in vivo) was “approximately two weeks”.

For `CC(C)(S)[C@@H](N)C(=O)O` [penicillamine], the “patients developing an initial hypersensitivity syndrome” value [2] is listed as “a quarter to a third of patients” and the survival [3] is listed as “did not show improved survival over untreated controls”.

For `NCCNCCNCCN` [trientine], the negative copper balance (copper [4]) is listed as 1.5 to 2.5 mg/day, the patients with proteinuria (copper [5]; after several weeks of use) is listed as “about 20 % of patients” and the “cupruresis after the first few weeks of therapy” value (copper [5]; [6]) is listed as 2 to 3 mg. For the same molecule, the “cupruresis, initial” value (copper [5]; [6]) was 4 to 5 mg.

— US7438931B2, “Methods and compositions for the treatment of angiogenic diseases” (The Regents of The University of Michigan, priority 1998, dated 2008)
